Results reported in patent US20130109682A1, “CYCLIC ETHER COMPOUNDS USEFUL AS KINASE INHIBITORS” (NOVARTIS AG, priority 2010, published 2013).

Tests used:
PIM1 = PIM1 (Homo sapiens, UniProt P11309); experiment: KinaseGlo Pim1 ATP depletion assay; assay type: biochemical
In short: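 IC50 is derived from residual ATP measured by KinaseGlo Plus luminescence once about half the ATP was consumed. Final conditions were 20 μM ATP, 40 μM BAD peptide and 2.5 nM kinase in HEPES pH 7.5 buffer with MgCl2, DTT and BSA, plus 2.5% DMSO. Compound and enzyme were premixed 15 min before ATP addition.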

PIM2 = PIM2 (Homo sapiens, UniProt Q9P1W9); experiment: KinaseGlo Pim2 ATP depletion assay; assay type: biochemical
PIM2, sequence (Q9P1W9 whole entry): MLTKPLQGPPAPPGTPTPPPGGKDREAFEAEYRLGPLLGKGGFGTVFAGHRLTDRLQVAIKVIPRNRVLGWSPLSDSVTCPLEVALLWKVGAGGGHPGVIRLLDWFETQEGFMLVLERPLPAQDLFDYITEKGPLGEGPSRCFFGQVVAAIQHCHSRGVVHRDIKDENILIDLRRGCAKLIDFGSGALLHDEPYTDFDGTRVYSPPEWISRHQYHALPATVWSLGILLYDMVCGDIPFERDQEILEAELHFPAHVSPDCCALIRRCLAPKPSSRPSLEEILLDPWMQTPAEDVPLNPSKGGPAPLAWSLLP
In short: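 Compound sat 15 min with enzyme and BAD peptide before ATP was added; final levels 5 nM PIM2, 10 μM peptide, 4 μM ATP, 2.5% DMSO, pH 7.5 HEPES buffer with MgCl2, DTT, BSA. Stopped near 50% ATP consumption; remaining ATP measured by luciferase luminescence.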

GSK3β = GSK3β (Homo sapiens, UniProt P49841); experiment: GSK3β ATP depletion assay; assay type: biochemical; settings: read-out: GSK3b IC50
GSK3β, sequence (P49841 whole entry, species assumed): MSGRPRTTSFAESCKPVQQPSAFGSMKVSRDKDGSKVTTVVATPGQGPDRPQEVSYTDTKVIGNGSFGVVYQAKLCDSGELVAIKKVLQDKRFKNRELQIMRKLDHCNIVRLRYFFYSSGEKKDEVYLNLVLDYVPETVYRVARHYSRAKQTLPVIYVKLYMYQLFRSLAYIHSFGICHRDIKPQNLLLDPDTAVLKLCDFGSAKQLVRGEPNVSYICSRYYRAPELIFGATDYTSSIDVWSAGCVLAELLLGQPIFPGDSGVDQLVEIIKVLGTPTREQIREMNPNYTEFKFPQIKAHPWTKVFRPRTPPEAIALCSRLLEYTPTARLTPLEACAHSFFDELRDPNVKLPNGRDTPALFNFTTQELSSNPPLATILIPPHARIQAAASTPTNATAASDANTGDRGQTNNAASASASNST
In short: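 Kinase activity is read as ATP consumption: luciferase luminescence reports the ATP remaining once roughly half of the 2 μM ATP is used. Reaction mix: 5 nM GSK3β, 10 μM b-CREB peptide, 50 mM Tris pH 7.5, 15 mM MgCl2, 1 mM DTT, 0.1% BSA, 2.5% DMSO. Enzyme and peptide are preincubated 15 min before ATP is added.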

[1] = test system: KMS11 (human myeloma cell line); experiment: Cell proliferation assay (CellTiter-Glo), KMS11; assay type: cell-based; settings: Homo sapiens, KMS-11; KMS11-Luc cells
In short: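 EC50 derived from CellTiter-Glo luminescence after 3-day exposure at 37° C. Compound was diluted to 2× in medium and added to an equal volume of cells. KMS11 myeloma cells were plated on assay day at 2000/well in IMDM with 10% FBS and sodium pyruvate.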

PIM3 = PIM3 (Homo sapiens, UniProt Q86V86); experiment: KinaseGlo Pim3 ATP depletion assay; assay type: biochemical
In short: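 Residual ATP was detected by luciferase luminescence once about half had been consumed. The reaction contained 5 nM enzyme, 100 μM BAD peptide (RSRHSSYPAGT) and 40 μM ATP in 50 mM HEPES pH 7.5, 5 mM MgCl2, 1 mM DTT and 0.05% BSA with 2.5% DMSO. Compound and enzyme/peptide were premixed 15 min before ATP.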

PIM1, sequence (P11309 whole entry): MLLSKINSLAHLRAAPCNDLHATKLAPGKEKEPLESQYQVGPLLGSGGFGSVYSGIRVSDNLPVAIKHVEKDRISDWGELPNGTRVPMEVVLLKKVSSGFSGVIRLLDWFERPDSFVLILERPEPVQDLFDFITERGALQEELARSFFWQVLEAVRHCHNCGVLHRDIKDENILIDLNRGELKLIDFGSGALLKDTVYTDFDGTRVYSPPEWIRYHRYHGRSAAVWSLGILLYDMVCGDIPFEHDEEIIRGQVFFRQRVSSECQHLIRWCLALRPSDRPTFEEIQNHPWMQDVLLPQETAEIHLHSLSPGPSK

C[C@@H]1O[C@H](c2ccncc2NC(=O)c2ccc(F)c(-c3c(F)cccc3F)n2)C[C@H](O)[C@H]1O [Example 120, 6-(2,6-difluorophenyl)-N-(4-((2S,4S,5R,6S)-4,5-dihydroxy-6-methyltetrahydro-2H-pyran-2-yl)pyridin-3-yl)-5-fluoropicolinamide]
IC50 (PIM1): 2 nM | IC50 (PIM2): 12 nM | IC50 (GSK3β): 798 nM | EC50 [1]: > 10000 nM | IC50 (PIM3): 3 nM

Nc1cnc(-c2c(F)cccc2F)nc1C(=O)Nc1cnccc1[C@H]1C[C@@H](O)[C@H](O)[C@@H](C2CC2)O1 [Example 207, 5-amino-N-(4-((2R,4R,5S,6R)-6-cyclopropyl-4,5-dihydroxytetrahydro-2H-pyran-2-yl)pyridin-3-yl)-2-(2,6-difluorophenyl)pyrimidine-4-carboxamide]
IC50 (PIM1): 6.3 nM | IC50 (PIM2): 6 nM | IC50 (GSK3β): 572 nM | EC50 [1]: 6450 nM | IC50 (PIM3): 8.5 nM

C[C@H]1[C@H](O)C[C@H](c2ccncc2NC(=O)c2ccc(F)c(-c3c(F)cccc3F)n2)O[C@@H]1C (stereo in doubt) [Example 97, 6-(2,6-difluorophenyl)-5-fluoro-N-(4-((2R,4R,5S,6R)-4-hydroxy-5,6-dimethyltetrahydro-2H-pyran-2-yl)pyridin-3-yl)picolinamide]
IC50 (PIM1): 5 nM | IC50 (PIM2): 263 nM | IC50 (GSK3β): 313 nM | EC50 [1]: > 10000 nM | IC50 (PIM3): 37 nM

CC[C@H]1O[C@@H](c2ccncc2NC(=O)c2csc(-c3c(F)cccc3F)n2)C[C@@H](O)[C@@H]1O [Example 41, 2-(2,6-difluorophenyl)-N-(4-((2R,4R,5S,6R)-6-ethyl-4,5-dihydroxytetrahydro-2H-pyran-2-yl)pyridin-3-yl)thiazole-4-carboxamide]
IC50 (PIM1): 1 nM | IC50 (PIM2): 65 nM | IC50 (GSK3β): 17 nM | EC50 [1]: 9900 nM | IC50 (PIM3): 7 nM

C[C@H]1[C@H](O)C[C@H](c2ccncc2NC(=O)c2csc(-c3c(F)cccc3F)n2)O[C@@H]1C (stereo in doubt) [Example 95, 2-(2,6-difluorophenyl)-N-(4-((2R,4R,5S,6R)-4-hydroxy-5,6-dimethyltetrahydro-2H-pyran-2-yl)pyridin-3-yl)thiazole-4-carboxamide]
IC50 (PIM1): 8 nM | IC50 (PIM2): 2170 nM | IC50 (GSK3β): 32 nM | EC50 [1]: > 10000 nM | IC50 (PIM3): 80 nM

CC[C@]1(O)[C@H](O)C[C@H](c2ccncc2NC(=O)c2nc(-c3ccncc3F)ccc2N)O[C@@H]1C [Example 157, 5-amino-N-(4-((2R,4R,5S,6R)-5-ethyl-4,5-dihydroxy-6-methyltetrahydro-2H-pyran-2-yl)pyridin-3-yl)-3′-fluoro-2,4′-bipyridine-6-carboxamide]
IC50 (PIM1): 8 nM | IC50 (PIM2): 34.6 nM | IC50 (GSK3β): 7.9 nM | EC50 [1]: 9630 nM | IC50 (PIM3): 8.1 nM

O=C(Nc1cnccc1[C@@H]1OCC[C@H](CO)O1)c1csc(-c2c(F)cccc2F)n1 [Example 99, 2-(2,6-difluorophenyl)-N-(4-((2R,4R)-4-(hydroxymethyl)-1,3-dioxan-2-yl)pyridin-3-yl)thiazole-4-carboxamide]
IC50 (PIM1): 14 nM | IC50 (PIM2): 3380 nM | IC50 (GSK3β): 3170 nM | EC50 [1]: > 10000 nM | IC50 (PIM3): 75 nM

C[C@H]1O[C@@H](c2ccncc2NC(=O)c2cccc(-c3ccccc3F)n2)C[C@@H](O)[C@]1(C)O [Example 92, N-(4-((2R,4R,5S,6R)-4,5-dihydroxy-5,6-dimethyltetrahydro-2H-pyran-2-yl)pyridin-3-yl)-6-(2-fluorophenyl)picolinamide]
IC50 (PIM1): 1 nM | IC50 (PIM2): 16 nM | IC50 (GSK3β): 125 nM | EC50 [1]: > 10000 nM | IC50 (PIM3): 2 nM

O=C(Nc1cnccc1[C@H]1C[C@@H](O)CCO1)c1csc(-c2c(F)cccc2F)n1 [Example 131, 2-(2,6-difluorophenyl)-N-(4-((2R,4S)-4-hydroxytetrahydro-2H-pyran-2-yl)pyridin-3-yl)thiazole-4-carboxamide]
IC50 (PIM1): 3 nM | IC50 (PIM2): 1110 nM | IC50 (GSK3β): 216 nM | EC50 [1]: > 10000 nM | IC50 (PIM3): 22 nM

O=C(Nc1cnccc1[C@@H]1C[C@H](O)[C@]2(O)CCC[C@@H]2O1)c1ccc(F)c(-c2c(F)cccc2F)n1 [Example 188, 6-(2,6-difluorophenyl)-N-(4-((2S,4S,4aR,7aS)-4,4a-dihydroxyoctahydrocyclopenta[b]pyran-2-yl)pyridin-3-yl)-5-fluoropicolinamide]
IC50 (PIM1): 34.5 nM | IC50 (PIM2): 318 nM | IC50 (GSK3β): 731 nM | EC50 [1]: > 10000 nM | IC50 (PIM3): 144 nM

NC(=O)C[C@H]1O[C@@H](c2ccncc2NC(=O)c2ccc(F)c(-c3c(F)cccc3F)n2)C[C@@H](O)[C@@H]1O [Example 142, N-(4-((2R,4R,5S,6R)-6-(2-amino-2-oxoethyl)-4,5-dihydroxytetrahydro-2H-pyran-2-yl)pyridin-3-yl)-6-(2,6-difluorophenyl)-5-fluoropicolinamide]
IC50 (PIM1): 1080 nM | IC50 (PIM2): 6600 nM | IC50 (GSK3β): > 25000 nM | EC50 [1]: > 10000 nM | IC50 (PIM3): 890 nM

C[C@H]1O[C@@H](c2ccncc2NC(=O)c2ccc(F)c(-c3c(F)cccc3F)n2)C[C@@H](O)[C@]1(C)O (stereo in doubt) [Example 110, 6-(2,6-difluorophenyl)-N-(4-((2R,4R,5S,6R)-4,5-dihydroxy-5,6-dimethyltetrahydro-2H-pyran-2-yl)pyridin-3-yl)-5-fluoropicolinamide]
IC50 (PIM1): 19 nM | IC50 (PIM2): 347 nM | IC50 (GSK3β): 659 nM | EC50 [1]: > 10000 nM | IC50 (PIM3): 16 nM

C[C@@H]1O[C@H](c2ccncc2NC(=O)c2csc(-c3c(F)cccc3F)n2)C[C@H](O)[C@@]1(C)O (stereo in doubt) [Example 111, 2-(2,6-difluorophenyl)-N-(4-((2S,4S,5R,6S)-4,5-dihydroxy-5,6-dimethyltetrahydro-2H-pyran-2-yl)pyridin-3-yl)thiazole-4-carboxamide]
IC50 (PIM1): 1 nM | IC50 (PIM2): 43 nM | IC50 (GSK3β): 26 nM | EC50 [1]: > 10000 nM | IC50 (PIM3): 2 nM

C[C@H]1O[C@@H](c2ccncc2NC(=O)c2csc(-c3c(F)cccc3F)n2)C[C@@H](O)[C@@H]1O (stereo in doubt) [Example 136, 2-(2,6-difluorophenyl)-N-(4-((2R,4R,5S,6R)-4,5-dihydroxy-6-methyltetrahydro-2H-pyran-2-yl)pyridin-3-yl)thiazole-4-carboxamide]
IC50 (PIM1): 18 nM | IC50 (PIM2): 363 nM | IC50 (GSK3β): 165 nM | EC50 [1]: > 10000 nM | IC50 (PIM3): 13 nM

Nc1cc(F)c(-c2c(F)cccc2F)nc1C(=O)Nc1cnccc1[C@H]1C[C@@H](O)[C@H](O)[C@@H](CCl)O1 [Example 35, 3-amino-N-(4-((2R,4R,5S,6S)-6-(chloromethyl)-4,5-dihydroxytetrahydro-2H-pyran-2-yl)pyridin-3-yl)-6-(2,6-difluorophenyl)-5-fluoropicolinamide]
IC50 (PIM1): 1 nM | IC50 (PIM2): 1 nM | IC50 (GSK3β): 88 nM | EC50 [1]: 1000 nM | IC50 (PIM3): 1 nM

CC[C@H]1O[C@@H](c2ccncc2NC(=O)c2nc(-c3c(F)cccc3F)c(F)cc2N)C[C@@H](O)[C@]1(C)O [Example 166, 3-amino-6-(2,6-difluorophenyl)-N-(4-((2R,4R,5S,6R)-6-ethyl-4,5-dihydroxy-5-methyltetrahydro-2H-pyran-2-yl)pyridin-3-yl)-5-fluoropicolinamide]
IC50 (PIM1): 0.6 nM | IC50 (PIM2): 1.2 nM | IC50 (GSK3β): 1680 nM | EC50 [1]: 1330 nM | IC50 (PIM3): 1.5 nM

C=C[C@H]1O[C@@H](c2ccncc2NC(=O)c2nc(-c3c(F)cccc3F)ncc2N)C[C@@H](O)[C@@H]1O [Example 161, 5-amino-2-(2,6-difluorophenyl)-N-(4-((2R,4R,5S,6R)-4,5-dihydroxy-6-vinyltetrahydro-2H-pyran-2-yl)pyridin-3-yl)pyrimidine-4-carboxamide]
IC50 (PIM1): 32.8 nM | IC50 (PIM2): 22.3 nM | IC50 (GSK3β): 1430 nM | EC50 [1]: > 10000 nM | IC50 (PIM3): 15.8 nM

C[C@H]1O[C@@H](c2ccncc2NC(=O)c2ccc(F)c(-c3c(F)cccc3F)n2)[C@H](F)[C@@H](O)[C@]1(C)O (stereo in doubt) [Example 69, 6-(2,6-difluorophenyl)-5-fluoro-N-(4-((2S,3R,4S,5S,6R)-3-fluoro-4,5-dihydroxy-5,6-dimethyltetrahydro-2H-pyran-2-yl)pyridin-3-yl)picolinamide]
IC50 (PIM1): 4 nM | IC50 (PIM2): 497 nM | IC50 (GSK3β): 1800 nM | EC50 [1]: 4000 nM | IC50 (PIM3): 53 nM

CC[C@]1(O)[C@H](O)C[C@H](c2ccncc2NC(=O)c2c[nH]cc(-c3ccccc3)c2=O)O[C@@H]1C [Example 179, N-(4-((2R,4R,5S,6R)-5-ethyl-4,5-dihydroxy-6-methyltetrahydro-2H-pyran-2-yl)pyridin-3-yl)-4-oxo-5-phenyl-1,4-dihydropyridine-3-carboxamide]
IC50 (PIM1): 259 nM | IC50 (PIM2): 3080 nM | IC50 (GSK3β): 2690 nM | EC50 [1]: > 10000 nM | IC50 (PIM3): 132 nM
